Source: US7915276B2, “Berberrubine derivatives having antifungal activities” (priority 2006, dated 2011)

Experiments:
[1] = system: Cryptococcus neoformans ATCC 36556; assay: In vitro antifungal activity (MIC), NCCLS method; format: cell-based; details: RPMI 1640 medium, 72 hours
How it was run: (§1)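 Broth microdilution per NCCLS: two-fold serial dilutions of test compound inoculated with fungal suspension at a final 5×10^2 to 2.5×10^3 cell/mL. Strains other than Cryptococcus neoformans were incubated 48 hours before MIC reading.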

[2] = system: Candida albicans A207 (clinical isolate); assay: In vitro antifungal activity (MIC), NCCLS method; format: cell-based; details: 48 hours
How it was run: as §1

[3] = system: Mucor ramosissimus ATCC 90286; assay: In vitro antifungal activity (MIC), NCCLS method; format: cell-based; details: 48 hours
How it was run: as §1

[4] = system: Candida glabrata ATCC 48435; assay: In vitro antifungal activity (MIC), NCCLS method; format: cell-based; details: Candida glabrata ATCC 48435; 48 hours
How it was run: as §1

[5] = system: Candida parapsilosis ATCC 34136; assay: In vitro antifungal activity (MIC), NCCLS method; format: cell-based; details: Candida parapsilosis ATCC 34136; 48 hours
How it was run: as §1

[6] = system: Aspergillus fumigatus ATCC 16424; assay: In vitro antifungal activity (MIC), NCCLS method; format: cell-based; details: 48 hours
How it was run: (§2)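 Two-fold dilutions, final inoculum 5×10^2–2.5×10^3 cell/mL, NCCLS protocol; 48 h culture for these strains. MIC = minimum inhibitory concentration.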

[7] = system: Candida albicans ATCC 10231; assay: In vitro antifungal activity (MIC), NCCLS method; format: cell-based; details: 48 hours
How it was run: as §1

[8] = system: Candida lusitaniae ATCC 42720; assay: In vitro antifungal activity (MIC), NCCLS method; format: cell-based; details: 48 hours
How it was run: as §1

[9] = system: Aspergillus terreus ATCC 46941; assay: In vitro antifungal activity (MIC), NCCLS method; format: cell-based; details: 48 hours
How it was run: as §2

[10] = system: Candida tropicalis ATCC 13803; assay: In vitro antifungal activity (MIC), NCCLS method; format: cell-based; details: 48 hours
How it was run: as §1

Candida krusei ATCC 6258 = assay: In vitro antifungal activity (MIC), NCCLS method; format: cell-based; details: 48 hours
How it was run: as §1

[11] = system: Aspergillus flavus ATCC 64025; assay: In vitro antifungal activity (MIC), NCCLS method; format: cell-based; details: 48 hours
How it was run: as §2

[12] = biological target: T1, chitin synthase 2 of Saccharomyces cerevisiae ECY38-38A(pAS6) (Saccharomyces cerevisiae, UniProt P14180); assay: In vitro enzyme assay for chitin synthase 2 of Saccharomyces cerevisiae (enzyme 2); format: biochemical; details: relative to polyoxin D (50% inhibitory activity = value 5)
T1 construct: made in house; host or cells: Saccharomyces cerevisiae ECY38-38A (chs1-23 chs2::LEU2 cal1/csd2) carrying plasmid pAS6, grown in galactose medium; 130,000 x g membrane pellet
T1 sequence (P14180 whole entry): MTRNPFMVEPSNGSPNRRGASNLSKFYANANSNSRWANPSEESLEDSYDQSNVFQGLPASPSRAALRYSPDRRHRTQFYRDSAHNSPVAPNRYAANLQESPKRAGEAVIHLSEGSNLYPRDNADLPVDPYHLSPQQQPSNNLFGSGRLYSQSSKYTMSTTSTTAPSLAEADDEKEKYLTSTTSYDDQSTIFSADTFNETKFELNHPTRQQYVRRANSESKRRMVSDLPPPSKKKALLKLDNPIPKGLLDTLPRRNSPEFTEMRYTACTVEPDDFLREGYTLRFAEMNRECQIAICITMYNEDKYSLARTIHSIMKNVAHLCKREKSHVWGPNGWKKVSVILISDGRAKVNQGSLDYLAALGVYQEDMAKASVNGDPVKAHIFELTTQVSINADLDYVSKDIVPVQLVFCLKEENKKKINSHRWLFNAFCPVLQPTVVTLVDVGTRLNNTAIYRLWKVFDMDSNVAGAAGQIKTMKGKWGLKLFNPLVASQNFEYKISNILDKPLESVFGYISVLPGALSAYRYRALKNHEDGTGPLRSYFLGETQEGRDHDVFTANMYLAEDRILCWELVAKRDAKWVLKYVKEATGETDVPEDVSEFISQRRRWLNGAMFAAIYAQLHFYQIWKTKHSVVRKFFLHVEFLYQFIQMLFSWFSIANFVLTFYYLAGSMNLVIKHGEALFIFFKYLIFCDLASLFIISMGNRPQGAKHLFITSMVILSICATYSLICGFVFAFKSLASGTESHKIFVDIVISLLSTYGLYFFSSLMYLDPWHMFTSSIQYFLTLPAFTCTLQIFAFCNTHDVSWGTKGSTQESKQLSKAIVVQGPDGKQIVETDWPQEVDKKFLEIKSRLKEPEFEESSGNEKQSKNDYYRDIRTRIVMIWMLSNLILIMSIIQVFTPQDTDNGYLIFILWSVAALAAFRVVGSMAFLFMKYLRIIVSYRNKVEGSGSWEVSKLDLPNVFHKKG
How it was run: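 Values are scores: 5 means 50% inhibition at the same concentration as polyoxin D, lower scores 2- to 16-fold higher concentration, higher scores ½ to ⅛. Radiolabel from 1.1 mM UDP-[14C]-GlcNAc was incorporated into TCA-insoluble chitin over 90 min at 30 °C (pH 7.5 Tris, 2 mM Co2+). The enzyme was a trypsin-activated membrane fraction from CHS2-only S. cerevisiae ECY38-38A(pAS6).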

[13] = biological target: T2, chitin synthase 1 of Candida albicans chs2 Δ chs 3 Δ (Candida albicans, UniProt P23316); assay: In vitro enzyme assay for chitin synthase 1 of Candida albicans (enzyme 1); format: biochemical; details: relative to polyoxin D (50% inhibitory activity = value 5)
T2 construct: Crude enzyme was prepared using the Candida albicans chs2 Δ chs 3 Δ mutant; endogenous in cells; host or cells: Candida albicans chs2Δ/chs2Δ chs3Δ/chs3Δ mutant; 130,000 x g membrane pellet
T2 sequence (P23316 whole entry, stated change not applied): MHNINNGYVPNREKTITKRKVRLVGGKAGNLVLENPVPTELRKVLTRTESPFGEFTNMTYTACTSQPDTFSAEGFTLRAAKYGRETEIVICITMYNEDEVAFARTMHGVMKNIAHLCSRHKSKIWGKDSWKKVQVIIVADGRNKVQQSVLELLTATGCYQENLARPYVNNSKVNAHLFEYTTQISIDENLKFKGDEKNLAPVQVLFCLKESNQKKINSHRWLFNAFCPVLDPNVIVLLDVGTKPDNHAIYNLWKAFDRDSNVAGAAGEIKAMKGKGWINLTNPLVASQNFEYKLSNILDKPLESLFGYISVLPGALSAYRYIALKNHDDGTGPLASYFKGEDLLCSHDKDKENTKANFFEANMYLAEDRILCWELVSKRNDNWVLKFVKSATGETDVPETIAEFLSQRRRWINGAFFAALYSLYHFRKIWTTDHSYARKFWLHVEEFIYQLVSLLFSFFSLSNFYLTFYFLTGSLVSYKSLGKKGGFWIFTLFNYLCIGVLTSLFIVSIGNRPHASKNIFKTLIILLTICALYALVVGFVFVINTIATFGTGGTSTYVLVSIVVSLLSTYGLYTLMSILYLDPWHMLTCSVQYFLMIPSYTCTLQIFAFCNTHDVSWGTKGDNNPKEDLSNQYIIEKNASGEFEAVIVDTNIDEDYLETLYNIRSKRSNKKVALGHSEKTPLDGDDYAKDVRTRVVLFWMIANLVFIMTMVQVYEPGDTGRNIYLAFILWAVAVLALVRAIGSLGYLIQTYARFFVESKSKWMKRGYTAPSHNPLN
How it was run: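 Trypsin-activated crude membrane chitin synthase 1 from C. albicans chs2Δ chs3Δ was incubated 90 min at 30 °C with 1.1 mM UDP-[14C]GlcNAc and 2 mM cobalt acetate in Tris-HCl pH 7.5. Filtered TCA precipitate was counted by scintillation; values are scores 1–8 against polyoxin D (5 = same concentration).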

human pathogenic fungi = assay: Antifungal activity against human pathogenic fungi (summary statements); format: cell-based
Text: Candida albicans ATCC 10231, Candida lusitaniae ATCC 42720, Candida krusei ATCC 6258, Candida tropicalis ATCC 13803, Candida glabrata ATCC 48435, Candida parapsilosis ATCC 34136, Cryptococcus neoformans ATCC 36556, Aspergillus fumigatus ATCC 16424, Aspergillus flavus ATCC 64025, Aspergillus terreus ATCC 46941 and Mucor ramosissimus ATCC 90286 strains for the MIC (minimum inhibitory concentration) measurement were obtained from ATCC (American Type Culture Collection) in the U.S. The Candida albicans A207(clinical isolate) strain was used by isolating it from the patients.
The determination of MIC was performed according to the NCCLS (National Committee for Clinical Laboratory Standard) method. Each test sample solution was diluted two-fold and inoculated with a fungal suspension to reach a final inoculum size of 5×10^2 to 2.5×10^3 cell/mL. The Cryptococcus neoformans strain was cultured in the RPMI 1640 medium for 72 hours. Other strains were cultured for 48 hours.

chitin synthases = assay: Inhibitory activity against the chitin synthases (summary statements); format: biochemical
Text: The inhibitory activities against the chitin synthase 1 of Candida albicans chs2 Δ chs 3 Δ (abbreviated as ‘enzyme 1’) and the chitin synthase 2 of Saccharomyces cerevisiae ECY38-38A(pAS6)(abbreviated as ‘enzyme 2’) was examined for compound Nos. 1 to 70 compound and polyoxin D, a positive control compound.
The inhibitory activity against the chitin synthase 1 prepared from Candida albicans and the chitin synthase 2 prepared from Saccharomyces cerevisiae were examined as follows. A reaction mixture containing 32 mM Tris-HCl (pH 7.5), 2 mM cobalt acetate, 1.1 mM UDP-[U-^14C]-N-acetyl-d-glucosamine (GlcNAc) (400,000 cpm/μmol), 2 μL of trypsin (0.75 mg/mL), 20 μL of each crude enzyme and 14 μL of each test sample was kept at 30° C. for 15 minutes to activate the enzyme. Then, 2 μL of trypsin inhibitor (1.5 mg/mL) was added and the mixture was kept in an ice bath for 10 minutes to deactivate trypsin. 2 μL of 0.8 M N-acetyl-d-glucosamine was added to a total volume of 50 μL and reaction was performed at 30° C. for 90 minutes. The reaction was stopped using 1 mL of 10% TCA solution and the reaction solution was filtered with a GF/C filter and dried at room temperature. After adding 3 mL of a scintillation cocktail solution, the amount of isotopes was measured using a liquid scintillation counter. Percentage inhibition against each enzyme was calculated by the following Equation 1.

Substance | MIC (minimum inhibitory concentration) [1] [µg/mL] | MIC (minimum inhibitory concentration) [2] [µg/mL] | MIC (minimum inhibitory concentration) [3] [µg/mL] | MIC (minimum inhibitory concentration) [4] [µg/mL] | MIC (minimum inhibitory concentration) [5] [µg/mL] | MIC (minimum inhibitory concentration) [6] [µg/mL] | MIC (minimum inhibitory concentration) [7] [µg/mL] | MIC (minimum inhibitory concentration) [8] [µg/mL] | MIC (minimum inhibitory concentration) [9] [µg/mL] | MIC (minimum inhibitory concentration) [10] [µg/mL] | MIC (minimum inhibitory concentration) (Candida krusei ATCC 6258) [µg/mL] | MIC (minimum inhibitory concentration) [11] [µg/mL] | Relative activity Enzyme 2 [12] | Relative activity Enzyme 1 [13] | antifungal activities compared with amphotericin B (in words) (human pathogenic fungi) | inhibitory activities against the chitin synthases (in words) (chitin synthases)
13-(4-Isopropylbenzyl)-9-O-propylberberrubine chloride [Compound No. 49] | 2 | 1 | 4 | 4 | 4 | 4 | 1 | 1 | 8 | 0.5 | 2 | 8 | 7 (compounds having the inhibitory activity at ½, ¼ and ⅛ lower concentrations than that of polyoxin D were given the values of 6, 7 and 8, respectively) | 4 (Compounds having the inhibitory activity at 2-fold, 4-fold, 8-fold and 16-fold higher concentrations than that of polyoxin D were given the values of 4, 3, 2 and 1, respectively) | comparable to that of amphotericin B | exceptionally superior inhibitory activities
13-(4-Isopropylbenzyl)-9-O-propylberberrubine iodide [Compound No. 17] | 2 | 1 | 4 | 4 | 4 | 4 | 1 | 2 | 8 | 0.5 | 2 | 8 | 7 (compounds having the inhibitory activity at ½, ¼ and ⅛ lower concentrations than that of polyoxin D were given the values of 6, 7 and 8, respectively) | 4 (Compounds having the inhibitory activity at 2-fold, 4-fold, 8-fold and 16-fold higher concentrations than that of polyoxin D were given the values of 4, 3, 2 and 1, respectively) | comparable to that of amphotericin B | exceptionally superior inhibitory activities
13-(4-tert-Butylbenzyl)-9-O-butylberberrubine chloride [Compound No. 40] | 1 | 0.5 | 4 | 4 | 4 | 2 | 0.5 | 0.5 | 8 | 0.25 | 1 | 8 | 7 (compounds having the inhibitory activity at ½, ¼ and ⅛ lower concentrations than that of polyoxin D were given the values of 6, 7 and 8, respectively) | 4 (Compounds having the inhibitory activity at 2-fold, 4-fold, 8-fold and 16-fold higher concentrations than that of polyoxin D were given the values of 4, 3, 2 and 1, respectively) | comparable to that of amphotericin B | exceptionally superior inhibitory activities
13-(4-tert-Butylbenzyl)-9-O-propylberberrubine chloride [Compound No. 39] | 2 | 1 | 4 | 4 | 4 | 4 | 1 | 1 | 8 | 0.5 | 2 | 8 | 7 (compounds having the inhibitory activity at ½, ¼ and ⅛ lower concentrations than that of polyoxin D were given the values of 6, 7 and 8, respectively) | 4 (Compounds having the inhibitory activity at 2-fold, 4-fold, 8-fold and 16-fold higher concentrations than that of polyoxin D were given the values of 4, 3, 2 and 1, respectively) | comparable to that of amphotericin B | exceptionally superior inhibitory activities
